Results from patent US20060106026A1, “4-(4-methylpiperazin-1-ylmethyl)-n-[4-pyridin-3-yl)pyrimidin-2-ylamino)phenyl]-benzamide for treating anaplastic thyroid cancer” (priority 2002, published 2006).
Several values for one entry are separate records, joined by “and”; a condition that tells them apart may be missing. Equal values may be shown once.

Tests used:
[1] = system: 1F3; settings: 1F3, 10 μM of SALT I, 48 hours
Protocol: (§1) For flow cytometry analysis, cells were fixed with 70% ethanol and wash with PBS. After pre-incubation with RNase A (0.1 mg per ml) at room temperature, cells were stained with PI (25 μg per ml). Fluorescence was measured by using FACScan flow cytometer (Becton Dickinson, Mountain View, Calif.). This experiment was performed at least three times.

[2] = system: ARO; settings: 10 μM of SALT I
Protocol: as §1

[3] = system: TPC-1; settings: TPC-1, 10 μM of SALT I, 48 hours
Protocol: as §1

SMILES: CS(=O)(=O)O.Cc1ccc(NC(=O)c2ccc(CN3CCN(C)CC3)cc2)cc1Nc1nccc(-c2cccnc2)n1 [SALT I]
- effect on cell cycle (G2/M or S-phase changes) [1]: No such changes were observed
- percentage of cells in S phase ([1]; DMSO 9.4): 9.1%
- percentage of cells in G2-M phase ([1]; DMSO 27.3): 20.4%
- percentage of cells in G1 phase ([1]; DMSO 63.3): 70.5%
- increase of the proportion of cells in G2/M-phase versus DMSO ([2]; 48 hours (9.28% vs. 3.78%)): increased more then two-fold
- percentage of cells in G2-M phase ([2]; 48 hours, DMSO 3.8): 9.28% and 9.3%
- percentage of cells in S phase ([2]; 48 hours, DMSO 19.7): 13.1%
- percentage of cells in G1 phase ([2]; 48 hours, DMSO 76.6): 77.6%
- effect on cell cycle (G2/M or S-phase changes) [3]: No such changes were observed
- percentage of cells in S phase ([3]; DMSO 9.7): 9.3%
- percentage of cells in G2-M phase ([3]; DMSO 22.6): 13.1%
- percentage of cells in G1 phase ([3]; DMSO 67.8): 77.6%
